# Measured values taken from the supplement of paper PMC10307832.
# Assays:
# Experiment in all cases: relative viability (nuclei count vs DMSO), 5 days (fraction); higher = more cells survive
# A549 = tested on: A549
# Procedure, shortened: (§1)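 One day after seeding in 1536-well plates, lung cancer cell lines were dosed by pin tool. Dosing was either single-drug or a fixed anchor-drug dose plus five library-drug doses (not always all listed) in √10 steps. After 5 days, nuclei were stained in one fix-and-stain step and counted on 4× images, and relative viability is the nuclei count of treated wells over that of vehicle wells, given as the median of duplicate plates.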
# ABC-1 = tested on: ABC-1
# Procedure, shortened: as §1
# Calu-6 = tested on: Calu-6
# Procedure, shortened: as §1
# EBC-1 = tested on: EBC-1
# Procedure, shortened: as §1
# EKVX = tested on: EKVX
# Procedure, shortened: as §1
# HCC-44 = tested on: HCC-44
# Procedure, shortened: as §1
# IA-LM = tested on: IA-LM
# Procedure, shortened: as §1
# NCI-H1299 = tested on: NCI-H1299
# Procedure, shortened: as §1
# NCI-H1703 = tested on: NCI-H1703
# Procedure, shortened: as §1
# NCI-H1993 = tested on: NCI-H1993
# Procedure, shortened: as §1
# NCI-H2085 = tested on: NCI-H2085
# Procedure, shortened: as §1
# NCI-H2126 = tested on: NCI-H2126
# Procedure, shortened: as §1
# RERF-LC-KJ = tested on: RERF-LC-KJ
# Procedure, shortened: as §1
compound,measurement,setting,value
Cc1sc2c(c1C)C(c1ccc(Cl)cc1)=N[C@@H](CC(=O)OC(C)(C)C)c1nnc(C)n1-2 [JQ1] + CS(=O)(=O)CCNCc1ccc(-c2ccc3ncnc(Nc4ccc(OCc5cccc(F)c5)c(Cl)c4)c3c2)o1 [Lapatinib] (partner 2 µM),relative viability,A549; first compound 0.04 µM,0.923
same,relative viability,A549; first compound 0.1265 µM,0.902
same,relative viability,A549; first compound 0.4 µM,1.04
same,relative viability,A549; first compound 1.265 µM,0.553
same,relative viability,A549; first compound 4 µM,0.358
same,relative viability,ABC-1; first compound 0.04 µM,1.11
same,relative viability,ABC-1; first compound 0.1265 µM,0.82
same,relative viability,ABC-1; first compound 0.4 µM,1.04
same,relative viability,ABC-1; first compound 1.265 µM,0.992
same,relative viability,ABC-1; first compound 4 µM,0.727
same,relative viability,Calu-6; first compound 0.04 µM,1.11
same,relative viability,Calu-6; first compound 0.1265 µM,0.9
same,relative viability,Calu-6; first compound 0.4 µM,0.999
same,relative viability,Calu-6; first compound 1.265 µM,0.598
same,relative viability,Calu-6; first compound 4 µM,0.564
same,relative viability,EBC-1; first compound 0.04 µM,0.205
same,relative viability,EBC-1; first compound 0.1265 µM,0.208
same,relative viability,EBC-1; first compound 0.4 µM,0.172
same,relative viability,EBC-1; first compound 1.265 µM,0.152
same,relative viability,EBC-1; first compound 4 µM,0.148
same,relative viability,EKVX; first compound 0.04 µM,0.256
same,relative viability,EKVX; first compound 0.1265 µM,0.269
same,relative viability,EKVX; first compound 0.4 µM,0.244
same,relative viability,EKVX; first compound 1.265 µM,0.226
same,relative viability,EKVX; first compound 4 µM,0.141
same,relative viability,HCC-44; first compound 0.04 µM,1.07
same,relative viability,HCC-44; first compound 0.1265 µM,0.849
same,relative viability,HCC-44; first compound 0.4 µM,0.795
same,relative viability,HCC-44; first compound 1.265 µM,0.488
same,relative viability,HCC-44; first compound 4 µM,0.532
same,relative viability,IA-LM; first compound 0.04 µM,0.63
same,relative viability,IA-LM; first compound 0.1265 µM,0.32
same,relative viability,IA-LM; first compound 0.4 µM,0.123
same,relative viability,IA-LM; first compound 1.265 µM,0.0937
same,relative viability,IA-LM; first compound 4 µM,0.116
same,relative viability,NCI-H1299; first compound 0.04 µM,0.975
same,relative viability,NCI-H1299; first compound 0.1265 µM,0.802
same,relative viability,NCI-H1299; first compound 0.4 µM,0.837
same,relative viability,NCI-H1299; first compound 1.265 µM,0.391
same,relative viability,NCI-H1299; first compound 4 µM,0.316
same,relative viability,NCI-H1703; first compound 0.04 µM,1.07
same,relative viability,NCI-H1703; first compound 0.1265 µM,0.764
same,relative viability,NCI-H1703; first compound 0.4 µM,1.2
same,relative viability,NCI-H1703; first compound 1.265 µM,0.47
same,relative viability,NCI-H1703; first compound 4 µM,0.432
same,relative viability,NCI-H1993; first compound 0.04 µM,0.825
same,relative viability,NCI-H1993; first compound 0.1265 µM,0.812
same,relative viability,NCI-H1993; first compound 0.4 µM,0.676
same,relative viability,NCI-H1993; first compound 1.265 µM,0.702
same,relative viability,NCI-H1993; first compound 4 µM,0.65
same,relative viability,NCI-H2085; first compound 0.04 µM,0.748
same,relative viability,NCI-H2085; first compound 0.1265 µM,0.723
same,relative viability,NCI-H2085; first compound 0.4 µM,0.621
same,relative viability,NCI-H2085; first compound 1.265 µM,0.409
same,relative viability,NCI-H2085; first compound 4 µM,0.396
same,relative viability,NCI-H2126; first compound 0.04 µM,0.759
same,relative viability,NCI-H2126; first compound 0.1265 µM,0.746
same,relative viability,NCI-H2126; first compound 0.4 µM,0.755
same,relative viability,NCI-H2126; first compound 1.265 µM,0.604
same,relative viability,NCI-H2126; first compound 4 µM,0.68
same,relative viability,RERF-LC-KJ; first compound 0.04 µM,0.807
same,relative viability,RERF-LC-KJ; first compound 0.1265 µM,0.856
same,relative viability,RERF-LC-KJ; first compound 0.4 µM,0.89
same,relative viability,RERF-LC-KJ; first compound 1.265 µM,0.781
same,relative viability,RERF-LC-KJ; first compound 4 µM,0.595
Cc1sc2c(c1C)C(c1ccc(Cl)cc1)=N[C@@H](CC(=O)OC(C)(C)C)c1nnc(C)n1-2 [JQ1] + CS(=O)(=O)N1CCN(Cc2cc3nc(-c4cccc5[nH]ncc45)nc(N4CCOCC4)c3s2)CC1 [Pictilisib] (partner 1 µM),relative viability,A549; first compound 0.04 µM,0.511
same,relative viability,A549; first compound 0.1265 µM,0.421
same,relative viability,A549; first compound 0.4 µM,0.35
same,relative viability,A549; first compound 1.265 µM,0.253
same,relative viability,A549; first compound 4 µM,0.185
same,relative viability,ABC-1; first compound 0.04 µM,0.699
same,relative viability,ABC-1; first compound 0.1265 µM,0.545
same,relative viability,ABC-1; first compound 0.4 µM,0.512
same,relative viability,ABC-1; first compound 1.265 µM,0.387
same,relative viability,ABC-1; first compound 4 µM,0.365
same,relative viability,Calu-6; first compound 0.04 µM,0.972
same,relative viability,Calu-6; first compound 0.1265 µM,0.826
same,relative viability,Calu-6; first compound 0.4 µM,0.897
same,relative viability,Calu-6; first compound 1.265 µM,0.468
same,relative viability,Calu-6; first compound 4 µM,0.372
same,relative viability,EBC-1; first compound 0.04 µM,0.31
same,relative viability,EBC-1; first compound 0.1265 µM,0.245
same,relative viability,EBC-1; first compound 0.4 µM,0.15
same,relative viability,EBC-1; first compound 1.265 µM,0.11
same,relative viability,EBC-1; first compound 4 µM,0.156
same,relative viability,EKVX; first compound 0.04 µM,0.442
same,relative viability,EKVX; first compound 0.1265 µM,0.464
same,relative viability,EKVX; first compound 0.4 µM,0.459
same,relative viability,EKVX; first compound 1.265 µM,0.359
same,relative viability,EKVX; first compound 4 µM,0.335
same,relative viability,HCC-44; first compound 0.04 µM,0.623
same,relative viability,HCC-44; first compound 0.1265 µM,0.498
same,relative viability,HCC-44; first compound 0.4 µM,0.532
same,relative viability,HCC-44; first compound 1.265 µM,0.294
same,relative viability,HCC-44; first compound 4 µM,0.213
same,relative viability,IA-LM; first compound 0.04 µM,0.278
same,relative viability,IA-LM; first compound 0.1265 µM,0.103
same,relative viability,IA-LM; first compound 0.4 µM,0.0998
same,relative viability,IA-LM; first compound 1.265 µM,0.0879
same,relative viability,IA-LM; first compound 4 µM,0.0786
same,relative viability,NCI-H1299; first compound 0.04 µM,0.691
same,relative viability,NCI-H1299; first compound 0.1265 µM,0.482
same,relative viability,NCI-H1299; first compound 0.4 µM,0.219
same,relative viability,NCI-H1299; first compound 4 µM,0.104
same,relative viability,NCI-H1703; first compound 0.04 µM,0.234
same,relative viability,NCI-H1703; first compound 0.1265 µM,0.212
same,relative viability,NCI-H1703; first compound 0.4 µM,0.238
same,relative viability,NCI-H1703; first compound 1.265 µM,0.21
same,relative viability,NCI-H1703; first compound 4 µM,0.216
same,relative viability,NCI-H1993; first compound 0.04 µM,0.883
same,relative viability,NCI-H1993; first compound 0.1265 µM,0.788
same,relative viability,NCI-H1993; first compound 0.4 µM,0.888
same,relative viability,NCI-H1993; first compound 1.265 µM,0.635
same,relative viability,NCI-H1993; first compound 4 µM,0.846
same,relative viability,NCI-H2085; first compound 0.04 µM,0.462
same,relative viability,NCI-H2085; first compound 0.1265 µM,0.497
same,relative viability,NCI-H2085; first compound 0.4 µM,0.441
same,relative viability,NCI-H2085; first compound 1.265 µM,0.368
same,relative viability,NCI-H2085; first compound 4 µM,0.385
same,relative viability,NCI-H2126; first compound 0.04 µM,0.484
same,relative viability,NCI-H2126; first compound 0.1265 µM,0.473
same,relative viability,NCI-H2126; first compound 0.4 µM,0.435
same,relative viability,NCI-H2126; first compound 1.265 µM,0.37
same,relative viability,NCI-H2126; first compound 4 µM,0.349
same,relative viability,RERF-LC-KJ; first compound 0.04 µM,0.579
same,relative viability,RERF-LC-KJ; first compound 0.1265 µM,0.661
same,relative viability,RERF-LC-KJ; first compound 0.4 µM,0.595
same,relative viability,RERF-LC-KJ; first compound 1.265 µM,0.304
same,relative viability,RERF-LC-KJ; first compound 4 µM,0.337
